Tests used:
[1] = tested on: Caco-2 cells; experiment: Caco-2 bidirectional permeability; type: in vitro ADME; details: for Caco-2 ER: Efflux Ratio=Papp(BA)/Papp(AB); for Caco-2 A2B (10^−6 cm/s): apical to basolateral; for Caco-2 A2B (10^−6 cm/s) / Caco-2 B2A (10^−6 cm/s): 2 hours, pH 7.4; for Caco-2 B2A (10^−6 cm/s): basolateral to apical
How it was run: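 Caco-2 monolayers were grown 21–28 days on PET inserts and run in duplicate in HBSS with 10 mM HEPES, pH 7.4. Test compound was dosed bidirectionally at […] for 2 h at 37 °C; quantification was by LC-MS/MS. Papp and efflux ratio (B-A/A-B) were calculated, with lucifer yellow monolayer integrity checks.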

[2] = Brain penetration (Kp,uu) in CD-1 mice after single IV bolus, with plasma and brain binding by equilibrium dialysis; type: in vivo; details: mouse, brain and plasma (unbound brain/unbound plasma), male CD-1 mice, single IV bolus 1 mg/kg
Description: The compounds disclosed herein were tested on CD-1 mice for brain penetration (Kp, uu) according to the following procedures.
Nine male CD-1 mice were administered TEST COMPOUND by single intravenous bolus administration at 1 mg/kg. The vehicle used for IV study was 5% DMSO, 5% solutol, 20% PEG300 and 70% water. The detailed dosing and sampling regimens are described in the following tables.
The body weights were in the range from 28.81 to 31.25 g for males on the first dosing day. All animals received a single intravenous bolus administration of TEST COMPOUND from the tail vein.
Each blood collection (about 0.06 mL per time point) was performed from saphenous vein of each animal into pre-chilled commercial K2-EDTA tubes as anti-coagulant and placed on wet ice until centrifugation.
Brain tissue was homogenized using homogenizing buffer (15 mM PBS (pH7.4): MeOH=2:1) at the ratio of 1:9 (1 g tissue with 9 mL buffer, the dilution ratio is 10). The tissue homogenate was kept at −60° C. or lower until LC-MS/MS analysis.
The concentrations of TEST COMPOUND in plasma and brain were determined by using an LC-MS/MS method.
The plasma and brain concentration of TEST COMPOUND in study animals was subjected to a non-compartmental pharmacokinetic analysis by using the Phoenix WinNonlin software program (version 6.3 or above, Pharsight). The linear/log trapezoidal rule was applied in obtaining the PK parameters.
Mouse Kp, uu=(% free in mouse brain*concentration in mouse brain)/(% free in mouse plasma*concentration in mouse plasma)
(§1) The dialysis apparatus was assembled according to the manufacturer's instruction. Each Cell was filled with 120 μL of spiked plasma sample and dialyzed against equal volume of dialysis buffer (PBS). The assay was performed in duplicate. The dialysis plates were sealed and incubated in an incubator at 37° C. with 5% CO2 and rotated at 100 rpm for 6 hours. At the end of incubation, the seals were removed and 50 μL of samples from both buffer and plasma chambers were transferred to a 96-well plate.
as §1, with “with 150” for “with 120”, “of brain homogenate” for “of spiked plasma”, “and brain homogenate” for “and plasma”, “transferred into separate tubes on” for “transferred to”, “a” for “a 96-well”

[3] = biological target: T1, wt human LRRK2, catalytic site (Homo sapiens, UniProt Q5S007); experiment: TR-FRET LanthaScreen Tb Kinase Activity Assay, LRRK2 inhibition; type: biochemical; details: 2 nM wt human LRRK2, 400 nM peptide, 38 μM ATP
T1 construct: wt human LRRK2, catalytic site, catalytic site (ThermoFisher/USA); purchased ThermoFisher
T1 sequence (Q5S007 1879-2138 limits assumed): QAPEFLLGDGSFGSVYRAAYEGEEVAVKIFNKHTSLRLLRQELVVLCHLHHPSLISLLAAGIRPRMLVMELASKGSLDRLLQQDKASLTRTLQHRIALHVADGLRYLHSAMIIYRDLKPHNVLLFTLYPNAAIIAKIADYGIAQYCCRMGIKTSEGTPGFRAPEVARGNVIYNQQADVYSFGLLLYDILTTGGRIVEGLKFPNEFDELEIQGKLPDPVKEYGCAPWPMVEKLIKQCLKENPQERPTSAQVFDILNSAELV
How it was run: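 Fluorescein-ERM (LRRKtide) peptide (400 nM) phosphorylated by 2 nM wt human LRRK2 catalytic site with 38 μM ATP in 1× Kinase Buffer A, 120 min at room temperature after 15 min compound–kinase preincubation. EDTA plus Tb-anti-pLRRKtide antibody added, read after 60 min; inhibition from TR-FRET emission ratios.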

Caco-2 ER [1]	Caco-2 B2A (10^−6 cm/s) [1]	Kp uu [2]	IC50 [3]	Structure (SMILES)	Caco-2 A2B (10^−6 cm/s) [1]
L (L (Likely)”: ER≥2.5)	H (H (High permeability)”: A2B (B2A)>5)	< 0.1	< 1 nM	C[C@H]1CN(c2cc3c(cn2)NC(c2c(F)cccc2F)=Nc2c(Cl)n[nH]c2-3)C[C@H](C)O1 [Example 26, (2S,6S)-4-(3-chloro-5-(2,6-difluorophenyl)-1,6-dihydropyrazolo[4,3-d]pyrido[4,3-f][1,3]diazepin-9-yl)-2,6-dimethylmorpholine]	H (H (High permeability)”: A2B (B2A)>5)
L (L (Likely)”: ER≥2.5)	H (H (High permeability)”: A2B (B2A)>5)	< 0.1	< 1 nM	Cn1cc(-c2cc3c(cn2)NC(c2c(F)cccc2F)=Nc2c(Cl)n[nH]c2-3)cn1 [Example 54, 3-chloro-5-(2,6-difluorophenyl)-9-(1-methyl-1H-pyrazol-4-yl)-1,6-dihydropyrazolo[4,3-d]pyrido[4,3-f][1,3]diazepine]	M (M (Moderate permeability)”: 1≤A2B (B2A)≤5)
L (L (Likely)”: ER≥2.5)	H (H (High permeability)”: A2B (B2A)>5)	< 0.1	< 1 nM	Fc1cccc(F)c1C1=Nc2c(Cl)n[nH]c2-c2cc(N3CCOCC3)ncc2N1 [Example 23, 4-(3-chloro-5-(2,6-difluorophenyl)-1,6-dihydropyrazolo[4,3-d]pyrido[4,3-f][1,3]diazepin-9-yl)morpholine]	M (M (Moderate permeability)”: 1≤A2B (B2A)≤5)
